Columns and labels:
Experiment in all cases: KINOMEscan competition binding
Conditions in all cases: compound 10.0 µM; call rule not given here
FER (human) = FER (human) (UniProt P16591)
HCK (human) = HCK (human) (UniProt P08631)
NLK (human) = NLK (human) (UniProt Q9UBE8)
FYN (human) = FYN (human) (UniProt P06241)
MET (human) = MET (human) (UniProt P08581)
SYK (human) = SYK (human) (UniProt P43405)
PRKX (human) = PRKX (human) (UniProt P51817)
RET (human) = RET (human) (UniProt P07949)
PDGFRB (human) = PDGFRB (human) (UniProt P09619)
ACVRL1 (human) = ACVRL1 (human) (UniProt P37023)
Chain of ACVRL1 (human) (P37023 whole entry, looked up): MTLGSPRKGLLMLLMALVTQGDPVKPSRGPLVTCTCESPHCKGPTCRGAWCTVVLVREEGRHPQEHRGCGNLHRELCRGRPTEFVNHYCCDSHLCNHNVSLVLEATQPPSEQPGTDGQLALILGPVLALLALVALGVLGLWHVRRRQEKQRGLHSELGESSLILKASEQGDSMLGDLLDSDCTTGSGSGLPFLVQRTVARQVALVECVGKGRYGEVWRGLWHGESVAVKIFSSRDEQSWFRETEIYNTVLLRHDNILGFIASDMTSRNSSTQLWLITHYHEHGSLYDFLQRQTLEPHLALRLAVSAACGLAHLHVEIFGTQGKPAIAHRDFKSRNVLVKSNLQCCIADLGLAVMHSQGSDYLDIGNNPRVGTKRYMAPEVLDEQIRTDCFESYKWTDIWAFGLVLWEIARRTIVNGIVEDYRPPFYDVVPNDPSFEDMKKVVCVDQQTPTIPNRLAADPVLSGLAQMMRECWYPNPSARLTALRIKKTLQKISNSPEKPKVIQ

TNK1 (human) = TNK1 (human) (UniProt Q13470)
LIMK2 (human) = LIMK2 (human) (UniProt P53671)
STK3 (human) = STK3 (human) (UniProt Q13188)
ABL2 (human) = ABL2 (human) (UniProt P42684)
CAMK1D (human) = CAMK1D (human) (UniProt Q8IU85)
MAP4K1 (human) = MAP4K1 (human) (UniProt Q92918)
CSNK2A1 (human) = CSNK2A1 (human) (UniProt P68400)
BMP2K (human) = BMP2K (human) (UniProt Q9NSY1)
MAPK3 (human) = MAPK3 (human) (UniProt P27361)
LTK (human) = LTK (human) (UniProt P29376)
Chain of LTK (human) (P29376 whole entry, looked up): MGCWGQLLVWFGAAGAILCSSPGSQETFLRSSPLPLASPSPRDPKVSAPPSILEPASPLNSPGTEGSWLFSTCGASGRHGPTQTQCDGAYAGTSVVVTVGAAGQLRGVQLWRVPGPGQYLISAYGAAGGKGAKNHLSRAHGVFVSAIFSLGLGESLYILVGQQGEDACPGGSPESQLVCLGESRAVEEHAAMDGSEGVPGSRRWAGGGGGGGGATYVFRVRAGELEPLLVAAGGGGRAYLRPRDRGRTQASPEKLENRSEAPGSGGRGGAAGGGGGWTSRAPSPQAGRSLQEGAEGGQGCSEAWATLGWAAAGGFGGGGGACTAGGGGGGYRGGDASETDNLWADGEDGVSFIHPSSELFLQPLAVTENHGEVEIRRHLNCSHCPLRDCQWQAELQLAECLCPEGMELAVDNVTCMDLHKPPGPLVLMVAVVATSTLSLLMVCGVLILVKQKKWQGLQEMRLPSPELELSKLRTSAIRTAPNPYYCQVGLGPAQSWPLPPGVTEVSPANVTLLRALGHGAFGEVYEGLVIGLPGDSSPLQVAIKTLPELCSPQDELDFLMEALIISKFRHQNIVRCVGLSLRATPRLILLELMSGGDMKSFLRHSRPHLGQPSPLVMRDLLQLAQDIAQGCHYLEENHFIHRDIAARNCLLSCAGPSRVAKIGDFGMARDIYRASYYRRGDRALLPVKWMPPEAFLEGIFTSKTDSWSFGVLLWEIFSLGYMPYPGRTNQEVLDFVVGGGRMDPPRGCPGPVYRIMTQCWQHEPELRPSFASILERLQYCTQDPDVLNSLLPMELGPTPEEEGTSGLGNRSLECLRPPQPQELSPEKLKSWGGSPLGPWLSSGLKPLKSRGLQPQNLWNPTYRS

KDR (human) = KDR (human) (UniProt P35968)
MKNK2 (human) = MKNK2 (human) (UniProt Q9HBH9)
TLK1 (human) = TLK1 (human) (UniProt Q9UKI8)
DAPK2 (human) = DAPK2 (human) (UniProt Q9UIK4)
[1] = target: JAK1 JH2 pseudokinase (human) (UniProt P23458)
[2] = target: TYK2 JH1 catalytic (human) (UniProt P29597)
ALK (human) = ALK (human) (UniProt Q9UM73)
[3] = target: JAK2 JH1 catalytic (human) (UniProt O60674)
MAP3K11 (human) = MAP3K11 (human) (UniProt Q16584)
SRPK1 (human) = SRPK1 (human) (UniProt Q96SB4)
PRKG2 (human) = PRKG2 (human) (UniProt Q13237)
EPHA5 (human) = EPHA5 (human) (UniProt P54756)
STK16 (human) = STK16 (human) (UniProt O75716)
Chain of STK16 (human) (O75716 whole entry, looked up): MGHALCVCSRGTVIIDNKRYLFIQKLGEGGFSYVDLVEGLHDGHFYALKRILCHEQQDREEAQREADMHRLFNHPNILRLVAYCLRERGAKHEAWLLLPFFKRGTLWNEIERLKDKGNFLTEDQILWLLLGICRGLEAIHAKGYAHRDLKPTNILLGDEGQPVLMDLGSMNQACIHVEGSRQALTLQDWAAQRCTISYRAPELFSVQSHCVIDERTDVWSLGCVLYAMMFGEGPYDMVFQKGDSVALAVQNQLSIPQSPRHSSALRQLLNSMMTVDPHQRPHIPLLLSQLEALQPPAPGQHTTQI

EPHA1 (human) = EPHA1 (human) (UniProt P21709)
Chain of EPHA1 (human) (P21709 whole entry, looked up): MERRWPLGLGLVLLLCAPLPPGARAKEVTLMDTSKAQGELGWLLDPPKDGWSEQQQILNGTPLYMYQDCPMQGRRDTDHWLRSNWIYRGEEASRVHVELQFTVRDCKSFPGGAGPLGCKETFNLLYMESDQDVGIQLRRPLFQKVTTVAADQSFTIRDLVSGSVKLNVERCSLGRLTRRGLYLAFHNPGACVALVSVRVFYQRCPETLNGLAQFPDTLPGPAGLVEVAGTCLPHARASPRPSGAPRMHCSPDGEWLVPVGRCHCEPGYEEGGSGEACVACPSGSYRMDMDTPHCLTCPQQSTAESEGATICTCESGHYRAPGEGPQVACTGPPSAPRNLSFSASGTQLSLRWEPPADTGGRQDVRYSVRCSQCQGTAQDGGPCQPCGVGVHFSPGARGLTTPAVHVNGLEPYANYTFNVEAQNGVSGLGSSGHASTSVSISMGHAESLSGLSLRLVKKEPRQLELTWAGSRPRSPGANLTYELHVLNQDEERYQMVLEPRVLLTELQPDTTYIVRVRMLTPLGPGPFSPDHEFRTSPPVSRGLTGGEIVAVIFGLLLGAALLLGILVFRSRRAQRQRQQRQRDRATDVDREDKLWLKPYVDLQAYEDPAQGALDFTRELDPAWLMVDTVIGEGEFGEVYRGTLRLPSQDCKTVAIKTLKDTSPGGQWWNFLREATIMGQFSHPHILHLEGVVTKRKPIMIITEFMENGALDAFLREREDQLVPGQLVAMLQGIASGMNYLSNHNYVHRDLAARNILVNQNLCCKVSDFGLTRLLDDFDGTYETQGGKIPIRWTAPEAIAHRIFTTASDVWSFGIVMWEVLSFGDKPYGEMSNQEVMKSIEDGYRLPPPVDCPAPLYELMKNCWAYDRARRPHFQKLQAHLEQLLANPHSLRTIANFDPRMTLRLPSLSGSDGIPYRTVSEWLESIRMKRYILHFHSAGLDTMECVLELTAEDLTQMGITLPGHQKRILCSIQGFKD

PAK4 (human) = PAK4 (human) (UniProt O96013)
Chain of PAK4 (human) (O96013 whole entry, looked up): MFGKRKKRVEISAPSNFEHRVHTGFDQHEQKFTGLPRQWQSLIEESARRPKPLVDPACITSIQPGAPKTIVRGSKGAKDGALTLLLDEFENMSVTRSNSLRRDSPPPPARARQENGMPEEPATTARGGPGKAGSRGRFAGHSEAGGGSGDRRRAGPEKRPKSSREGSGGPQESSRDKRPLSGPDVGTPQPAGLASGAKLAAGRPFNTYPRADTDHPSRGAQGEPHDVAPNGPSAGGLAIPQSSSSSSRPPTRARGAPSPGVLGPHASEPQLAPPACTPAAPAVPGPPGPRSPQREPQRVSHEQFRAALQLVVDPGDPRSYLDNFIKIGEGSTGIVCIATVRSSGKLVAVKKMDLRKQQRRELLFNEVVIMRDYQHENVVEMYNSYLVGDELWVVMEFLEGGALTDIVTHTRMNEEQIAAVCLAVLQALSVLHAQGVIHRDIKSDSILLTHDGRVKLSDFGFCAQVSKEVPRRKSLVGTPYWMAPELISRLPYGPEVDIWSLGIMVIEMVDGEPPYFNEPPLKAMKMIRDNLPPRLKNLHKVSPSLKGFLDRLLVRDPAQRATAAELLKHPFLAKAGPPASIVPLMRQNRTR

FLT4 (human) = FLT4 (human) (UniProt P35916)
EPHA4 (human) = EPHA4 (human) (UniProt P54764)
PRKAA1 (human) = PRKAA1 (human) (UniProt Q13131)
PIM2 (human) = PIM2 (human) (UniProt Q9P1W9)
Chain of PIM2 (human) (Q9P1W9 whole entry, looked up): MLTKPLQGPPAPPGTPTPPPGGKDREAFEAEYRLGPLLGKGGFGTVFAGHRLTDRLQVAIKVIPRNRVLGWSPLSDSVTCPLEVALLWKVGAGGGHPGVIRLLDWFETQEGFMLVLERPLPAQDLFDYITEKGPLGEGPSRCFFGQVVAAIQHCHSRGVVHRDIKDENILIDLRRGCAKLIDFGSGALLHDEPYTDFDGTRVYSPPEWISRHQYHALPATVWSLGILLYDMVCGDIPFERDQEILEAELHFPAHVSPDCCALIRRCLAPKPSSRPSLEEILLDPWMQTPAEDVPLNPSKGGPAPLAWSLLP

PHKG2 (human) = PHKG2 (human) (UniProt P15735)
NEK6 (human) = NEK6 (human) (UniProt Q9HC98)

Chain of FER (human) (P16591 whole entry, looked up): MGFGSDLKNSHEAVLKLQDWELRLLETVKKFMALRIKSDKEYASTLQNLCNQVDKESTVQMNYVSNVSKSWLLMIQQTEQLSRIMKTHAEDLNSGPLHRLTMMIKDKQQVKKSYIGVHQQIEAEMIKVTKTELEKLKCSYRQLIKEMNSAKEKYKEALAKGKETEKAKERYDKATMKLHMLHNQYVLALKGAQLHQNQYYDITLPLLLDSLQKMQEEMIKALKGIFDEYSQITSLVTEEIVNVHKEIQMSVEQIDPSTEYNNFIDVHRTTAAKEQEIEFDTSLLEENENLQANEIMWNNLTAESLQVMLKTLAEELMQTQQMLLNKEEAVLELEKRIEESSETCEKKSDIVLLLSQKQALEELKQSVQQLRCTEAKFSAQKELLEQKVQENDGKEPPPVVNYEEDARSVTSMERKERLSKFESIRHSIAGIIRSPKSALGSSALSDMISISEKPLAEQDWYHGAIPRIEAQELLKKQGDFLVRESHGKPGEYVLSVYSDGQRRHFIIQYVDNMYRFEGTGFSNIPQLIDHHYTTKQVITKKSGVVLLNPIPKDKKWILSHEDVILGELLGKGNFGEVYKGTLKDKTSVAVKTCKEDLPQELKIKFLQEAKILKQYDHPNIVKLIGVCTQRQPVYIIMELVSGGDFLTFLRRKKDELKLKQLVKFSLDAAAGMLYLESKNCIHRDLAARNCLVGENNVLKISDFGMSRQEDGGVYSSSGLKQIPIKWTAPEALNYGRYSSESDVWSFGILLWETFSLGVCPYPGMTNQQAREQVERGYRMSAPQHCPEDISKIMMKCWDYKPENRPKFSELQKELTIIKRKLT
Chain of FYN (human) (P06241 whole entry, looked up): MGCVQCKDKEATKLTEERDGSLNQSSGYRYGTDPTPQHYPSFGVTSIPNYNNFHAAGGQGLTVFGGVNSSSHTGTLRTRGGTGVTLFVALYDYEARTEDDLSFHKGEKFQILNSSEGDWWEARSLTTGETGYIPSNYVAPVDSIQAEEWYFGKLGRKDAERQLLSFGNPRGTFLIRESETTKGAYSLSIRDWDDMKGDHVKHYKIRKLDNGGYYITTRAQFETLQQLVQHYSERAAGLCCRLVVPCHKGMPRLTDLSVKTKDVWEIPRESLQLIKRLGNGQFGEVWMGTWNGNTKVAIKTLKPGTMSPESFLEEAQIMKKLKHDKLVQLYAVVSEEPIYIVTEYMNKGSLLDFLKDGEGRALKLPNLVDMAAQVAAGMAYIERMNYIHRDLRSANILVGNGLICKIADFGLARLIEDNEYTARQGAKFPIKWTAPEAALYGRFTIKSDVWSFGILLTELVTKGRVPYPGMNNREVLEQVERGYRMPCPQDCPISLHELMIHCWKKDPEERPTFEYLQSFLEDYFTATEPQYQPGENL

CCS(=O)(=O)Nc1ccc2c(c1)[C@H](/C(=N/c1ccc(CN3CCCCC3)cc1)c1ccccc1)C(=O)N2
kinase still bound, per cent of control (FER (human)): 0%
kinase still bound, per cent of control (HCK (human)): 0%
kinase still bound, per cent of control (NLK (human)): no effect (inactive)
kinase still bound, per cent of control (FYN (human)): 0%
kinase still bound, per cent of control (MET (human)): 0.3%
kinase still bound, per cent of control (SYK (human)): 1.3%
kinase still bound, per cent of control (PRKX (human)): 24.8%
kinase still bound, per cent of control (RET (human)): 0%
kinase still bound, per cent of control (PDGFRB (human)): 0%
kinase still bound, per cent of control (ACVRL1 (human)): 0%
kinase still bound, per cent of control (TNK1 (human)): 1%
kinase still bound, per cent of control (LIMK2 (human)): no effect (inactive)
kinase still bound, per cent of control (STK3 (human)): 0%
kinase still bound, per cent of control (ABL2 (human)): 4.8%
kinase still bound, per cent of control (CAMK1D (human)): 0.7%
kinase still bound, per cent of control (MAP4K1 (human)): 0.5%
kinase still bound, per cent of control (CSNK2A1 (human)): 0%
kinase still bound, per cent of control (BMP2K (human)): 0%
kinase still bound, per cent of control (MAPK3 (human)): 10.8%
kinase still bound, per cent of control (LTK (human)): 0%
kinase still bound, per cent of control (KDR (human)): 0%
kinase still bound, per cent of control (MKNK2 (human)): 2.1%
kinase still bound, per cent of control (TLK1 (human)): 0.75%
kinase still bound, per cent of control (DAPK2 (human)): 3.8%
kinase still bound, per cent of control [1]: 1.8%
kinase still bound, per cent of control [2]: 0%
kinase still bound, per cent of control (ALK (human)): 0%
kinase still bound, per cent of control [3]: 0.1%
kinase still bound, per cent of control (MAP3K11 (human)): 12.3%
kinase still bound, per cent of control (SRPK1 (human)): 0%
kinase still bound, per cent of control (PRKG2 (human)): 0%
kinase still bound, per cent of control (EPHA5 (human)): 0%
kinase still bound, per cent of control (STK16 (human)): 0%
kinase still bound, per cent of control (EPHA1 (human)): 0.2%
kinase still bound, per cent of control (PAK4 (human)): 0.2%
kinase still bound, per cent of control (FLT4 (human)): 0.1%
kinase still bound, per cent of control (EPHA4 (human)): 3.6%
kinase still bound, per cent of control (PRKAA1 (human)): 0%
kinase still bound, per cent of control (PIM2 (human)): no effect (inactive)
kinase still bound, per cent of control (PHKG2 (human)): 0%
kinase still bound, per cent of control (NEK6 (human)): no effect (inactive)
